Measured values from ChEMBL document CHEMBL4052702 (Bioorg Med Chem Lett, 2017).

How the values were obtained:
[1] = target: T1, Protein deacetylase HDAC6 (Homo sapiens) (UniProt Q9UBN7); test: Inhibition of HDAC6 (unknown origin) assessed as remaining enzyme activity at 1 x 10^-7 M by ELISA-based assay
T1 sequence (whole entry): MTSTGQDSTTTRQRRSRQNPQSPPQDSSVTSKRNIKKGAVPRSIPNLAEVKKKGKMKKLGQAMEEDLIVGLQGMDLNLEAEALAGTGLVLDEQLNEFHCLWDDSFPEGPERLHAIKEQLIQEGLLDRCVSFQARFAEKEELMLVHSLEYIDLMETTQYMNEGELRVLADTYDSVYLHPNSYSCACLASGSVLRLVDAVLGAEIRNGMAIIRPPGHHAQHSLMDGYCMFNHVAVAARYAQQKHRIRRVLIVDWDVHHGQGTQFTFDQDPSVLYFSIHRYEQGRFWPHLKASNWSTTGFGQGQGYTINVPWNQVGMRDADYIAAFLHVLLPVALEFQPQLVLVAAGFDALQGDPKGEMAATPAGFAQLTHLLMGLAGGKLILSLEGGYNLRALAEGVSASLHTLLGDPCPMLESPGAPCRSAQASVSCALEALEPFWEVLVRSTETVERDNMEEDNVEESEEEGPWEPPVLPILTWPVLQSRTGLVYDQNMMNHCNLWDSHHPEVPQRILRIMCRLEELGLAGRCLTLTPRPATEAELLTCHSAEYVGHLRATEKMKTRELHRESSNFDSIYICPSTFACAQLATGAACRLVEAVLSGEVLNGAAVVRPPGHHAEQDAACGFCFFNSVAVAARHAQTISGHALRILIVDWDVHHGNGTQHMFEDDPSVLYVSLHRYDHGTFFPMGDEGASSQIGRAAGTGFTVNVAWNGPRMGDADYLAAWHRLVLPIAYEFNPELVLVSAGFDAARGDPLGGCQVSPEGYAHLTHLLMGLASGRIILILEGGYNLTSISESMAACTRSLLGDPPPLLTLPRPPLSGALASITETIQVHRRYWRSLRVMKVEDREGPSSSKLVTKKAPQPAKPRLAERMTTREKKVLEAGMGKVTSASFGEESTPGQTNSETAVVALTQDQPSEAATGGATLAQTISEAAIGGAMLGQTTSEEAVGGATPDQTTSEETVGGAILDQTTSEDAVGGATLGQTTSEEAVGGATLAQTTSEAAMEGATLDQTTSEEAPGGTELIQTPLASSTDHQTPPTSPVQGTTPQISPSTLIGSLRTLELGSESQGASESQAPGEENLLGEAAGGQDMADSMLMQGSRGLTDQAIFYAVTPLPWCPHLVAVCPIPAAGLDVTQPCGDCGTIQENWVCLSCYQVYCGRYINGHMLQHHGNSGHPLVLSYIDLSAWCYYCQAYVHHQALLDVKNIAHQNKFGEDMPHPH

[2] = target: T2, Histone deacetylase 1 (Homo sapiens, UniProt Q13547); test: Inhibition of HDAC1 (unknown origin) assessed as remaining enzyme activity at 4 x 10^-6 M by ELISA-based assay
[3] = target: T3, Histone deacetylase 3 (Homo sapiens, UniProt O15379); test: Inhibition of HDAC3 (unknown origin) by ELISA-based assay
[4] = target: T4, Histone deacetylase 8 (Homo sapiens) (UniProt Q9BY41); test: Inhibition of HDAC8 (unknown origin) assessed as remaining enzyme activity at 4 x 10^-7 M by ELISA-based assay
T4 sequence (whole entry): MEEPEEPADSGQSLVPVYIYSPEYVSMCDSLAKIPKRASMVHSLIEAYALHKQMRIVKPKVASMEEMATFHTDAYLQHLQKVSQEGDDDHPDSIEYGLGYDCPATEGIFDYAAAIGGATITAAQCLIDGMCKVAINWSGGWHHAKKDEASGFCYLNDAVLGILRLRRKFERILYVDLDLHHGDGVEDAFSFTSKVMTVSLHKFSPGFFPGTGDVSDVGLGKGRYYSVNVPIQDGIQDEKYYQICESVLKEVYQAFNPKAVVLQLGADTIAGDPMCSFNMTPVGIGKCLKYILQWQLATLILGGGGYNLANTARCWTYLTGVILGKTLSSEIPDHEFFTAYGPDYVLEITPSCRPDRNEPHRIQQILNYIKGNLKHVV

[5] = target: T4, Histone deacetylase 8 (Homo sapiens); test: Inhibition of HDAC8 (unknown origin) assessed as remaining enzyme activity at 1.6 x 10^-6 M by ELISA-based assay
[6] = Inhibition of HDAC in human HeLa-S3 cells lysates pre-incubated for 15 mins before HDAC-Glo I/II substrate addition and measured after 30 mins post substrate addition; format: cell-based
[7] = target: T2, Histone deacetylase 1; test: Inhibition of HDAC1 (unknown origin) assessed as remaining enzyme activity at 5 x 10^-7 M by ELISA-based assay
[8] = target: T4, Histone deacetylase 8 (Homo sapiens); test: Inhibition of HDAC8 (unknown origin) assessed as remaining enzyme activity at 2 x 10^-7 M by ELISA-based assay
[9] = target: T5, Protein deacetylase HDAC6 (Homo sapiens, UniProt Q9UBN7); test: Inhibition of HDAC6 (unknown origin) by ELISA-based assay
T5 sequence (Q9UBN7 whole entry): T1 sequence (whole entry)

[10] = target: T1, Protein deacetylase HDAC6 (Homo sapiens); test: Inhibition of HDAC6 (unknown origin) assessed as remaining enzyme activity at 5 x 10^-8 M by ELISA-based assay
[11] = target: T2, Histone deacetylase 1; test: Inhibition of HDAC1 (unknown origin) by ELISA-based assay
[12] = target: T1, Protein deacetylase HDAC6 (Homo sapiens); test: Inhibition of HDAC6 (unknown origin) assessed as remaining enzyme activity at 8 x 10^-7 M by ELISA-based assay
[13] = target: T4, Histone deacetylase 8 (Homo sapiens); test: Inhibition of HDAC8 (unknown origin) assessed as remaining enzyme activity at 1 x 10^-7 M by ELISA-based assay
[14] = target: T3, Histone deacetylase 3; test: Inhibition of HDAC3 (unknown origin) assessed as remaining enzyme activity at 4 x 10^-6 M by ELISA-based assay
[15] = system: Jurkat; test: cells; format: functional; settings: Homo sapiens, 44 h
[16] = target: T6, Histone deacetylase 2 (Homo sapiens, UniProt Q92769); test: Inhibition of HDAC2 (unknown origin) assessed as remaining enzyme activity at 2 x 10^-6 M by ELISA-based assay
[17] = target: T2, Histone deacetylase 1; test: Inhibition of HDAC1 (unknown origin) assessed as remaining enzyme activity at 2 x 10^-6 M by ELISA-based assay
[18] = target: T6, Histone deacetylase 2; test: Inhibition of HDAC2 (unknown origin) assessed as remaining enzyme activity at 4 x 10^-6 M by ELISA-based assay
[19] = target: T1, Protein deacetylase HDAC6 (Homo sapiens); test: Inhibition of HDAC6 (unknown origin) assessed as remaining enzyme activity at 2 x 10^-7 M by ELISA-based assay
[20] = target: T3, Histone deacetylase 3; test: Inhibition of HDAC3 (unknown origin) assessed as remaining enzyme activity at 2 x 10^-6 M by ELISA-based assay
[21] = system: Jurkat; test: cells; format: functional; settings: Homo sapiens, 44 h; remark: listed apart in the source
[22] = target: T6, Histone deacetylase 2; test: Inhibition of HDAC2 (unknown origin) by ELISA-based assay
[23] = target: T4, Histone deacetylase 8 (Homo sapiens); test: Inhibition of HDAC8 (unknown origin) assessed as remaining enzyme activity at 8 x 10^-7 M by ELISA-based assay

T3 sequence (O15379 whole entry): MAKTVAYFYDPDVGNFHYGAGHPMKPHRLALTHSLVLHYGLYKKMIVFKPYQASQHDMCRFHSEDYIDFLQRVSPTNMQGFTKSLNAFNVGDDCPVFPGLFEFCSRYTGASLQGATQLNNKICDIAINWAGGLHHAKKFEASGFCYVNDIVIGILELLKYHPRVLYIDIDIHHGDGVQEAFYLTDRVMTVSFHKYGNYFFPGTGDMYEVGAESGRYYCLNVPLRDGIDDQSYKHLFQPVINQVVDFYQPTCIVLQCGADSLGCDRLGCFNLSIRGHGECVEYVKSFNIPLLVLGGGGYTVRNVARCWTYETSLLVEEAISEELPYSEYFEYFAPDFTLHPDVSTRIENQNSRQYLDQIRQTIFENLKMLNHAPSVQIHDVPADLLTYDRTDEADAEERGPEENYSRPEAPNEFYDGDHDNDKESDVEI
T2 sequence (Q13547 whole entry): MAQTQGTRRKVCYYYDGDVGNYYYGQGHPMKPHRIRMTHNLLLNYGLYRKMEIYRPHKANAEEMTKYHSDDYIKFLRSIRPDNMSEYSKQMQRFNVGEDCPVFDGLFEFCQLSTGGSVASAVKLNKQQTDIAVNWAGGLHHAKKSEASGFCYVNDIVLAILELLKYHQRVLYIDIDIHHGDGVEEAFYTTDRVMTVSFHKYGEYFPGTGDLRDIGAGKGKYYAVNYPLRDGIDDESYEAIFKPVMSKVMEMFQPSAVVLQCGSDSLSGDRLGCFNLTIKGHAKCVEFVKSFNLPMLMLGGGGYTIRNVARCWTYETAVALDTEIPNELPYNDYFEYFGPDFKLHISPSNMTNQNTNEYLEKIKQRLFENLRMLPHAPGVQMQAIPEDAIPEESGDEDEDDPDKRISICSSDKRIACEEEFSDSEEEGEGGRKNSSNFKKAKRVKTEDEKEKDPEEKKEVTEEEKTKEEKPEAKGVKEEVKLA
T6 sequence (Q92769 whole entry): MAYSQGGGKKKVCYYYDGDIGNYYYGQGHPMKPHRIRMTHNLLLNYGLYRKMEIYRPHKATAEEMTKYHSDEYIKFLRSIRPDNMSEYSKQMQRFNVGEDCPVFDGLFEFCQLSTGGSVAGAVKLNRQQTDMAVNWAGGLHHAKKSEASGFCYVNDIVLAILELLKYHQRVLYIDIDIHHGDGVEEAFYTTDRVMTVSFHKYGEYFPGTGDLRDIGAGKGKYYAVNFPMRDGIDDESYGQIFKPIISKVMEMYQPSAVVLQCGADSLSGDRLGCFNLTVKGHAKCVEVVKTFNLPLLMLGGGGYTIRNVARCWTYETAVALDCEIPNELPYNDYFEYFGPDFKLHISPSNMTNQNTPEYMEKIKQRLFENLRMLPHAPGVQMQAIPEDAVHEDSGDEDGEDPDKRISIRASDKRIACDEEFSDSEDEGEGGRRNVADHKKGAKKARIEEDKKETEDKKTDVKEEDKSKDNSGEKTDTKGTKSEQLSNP

| Activity [1] [%] | Activity [2] [%] | IC50 [3] [nM] | Activity [4] [%] | Activity [5] [%] | IC50 [6] [nM] | Activity [7] [%] | Activity [8] [%] | IC50 [9] [nM] | Activity [10] [%] | IC50 [11] [nM] | Activity [12] [%] | Activity [13] [%] | Activity [14] [%] | Activity [16] [%] | Activity [17] [%] | Activity [18] [%] | Activity [19] [%] | Activity [20] [%] | SMILES | viability at 10 µM [15] [%] | further results |
| --- | --- | --- | --- | --- | --- | --- | --- | --- | --- | --- | --- | --- | --- | --- | --- | --- | --- | --- | --- | --- | --- |
| 69 | 37 | 2900 | 51 | 21 | 6500 | 77 | 70 | 410 | 82 | 2100 | 34 | 78 | 39 | 57 | 54 | 41 | 66 | 67 | CCCCCCC(CCCC(=O)NO)CCC(=O)Nc1ccccc1 (centres undefined) | 24 | viability at 1 µM [21]: 101%; IC50 [22]: 2500 nM; Activity [23]: 35% |
| 70 | 18 | 1600 | 50 | 22 | 5000 | 68 | 69 | 320 | 90 | 1100 | 28 | 83 | 27 | 38 | 37 | 25 | 60 | 44 | CCCCC(CCCC(=O)NO)CCC(=O)Nc1ccccc1 (centres undefined) | 39 | viability at 1 µM [21]: 67%; IC50 [22]: 1300 nM; Activity [23]: 35% |
| 76 | 45 | 5800 | 47 | 19 | 6200 | 84 | 65 | 270 | 83 | 2900 | 26 | 82 | 53 | 62 | 54 | 49 | 54 | 85 | O=C(CCCC(CCC(=O)Nc1ccccc1)Cc1ccccc1)NO (centres undefined) | 50 | viability at 1 µM [21]: 71%; IC50 [22]: 3500 nM; Activity [23]: 33% |
